Literature values as cited in patent US20240325362A1, “NOVEL THERAPEUTIC METHOD FOR ENHANCING MITOCHONDRIAL FUNCTION, TREATING MITOCHONDRIAL DISEASES THEREBY, AND COMPOUNDS USED THEREIN” (STANDIGM INC., priority 2020, published 2024).

System: muscle mitochondrial function
Conditions: clinical study, as an NAD+ precursor

For Cc1cnc(C(=O)O)c[n+]1[O-] [acipimox], the “effect on muscle mitochondrial function” value is given as “beneficial effect on muscle mitochondrial function”.
